In brackets after ≈: the same amount, converted by molar mass.
Columns and labels:
[1] = target: T1, Calcitonin gene-related peptide type 1 receptor (Homo sapiens, UniProt O60894+Q16602); assay: Antagonist activity at CGRP receptor assessed as inhibition of CGRP-stimulated cAMP production by cell based assay; type: functional
Homo sapiens = organism: Homo sapiens; assay: Ratio of IC50 for inhibition of [35S]-MK-499 binding to human ERG channel to IC50 for inhibition of cell based CGRP-stimulated cAMP production
[2] = target: T1, Calcitonin gene-related peptide type 1 receptor; assay: Antagonist activity at CGRP receptor assessed as inhibition of CGRP-stimulated cAMP production by cell based assay in presence of 50% human serum; type: functional
[3] = target: T1, Calcitonin gene-related peptide type 1 receptor; assay: Displacement of [125I]-CGRP from human recombinant CGRP receptor
[4] = Oral bioavailability in rat at 10 mg/kg, po administered as a solution in 1:1 imwitor:tween; type: ADME, organism-based; conditions: in vivo
[5] = Oral bioavailability in rat at 10 mg/kg, po administered as a suspension in 1% aqueous methylcellulose; type: ADME, organism-based; conditions: in vivo
[6] = Oral bioavailability in dog at 10 mg/kg, po; type: ADME, organism-based, Canis lupus familiaris; conditions: in vivo
Rhesus monkey [7] = assay: Inhibition of capsaicin-induced dermal vasodilation in orally dosed rhesus monkey; type: functional, Macaca mulatta
[8] = Oral bioavailability in rhesus monkey at 10 mg/kg, po; type: ADME, organism-based, Macaca mulatta; conditions: in vivo
[9] = Aqueous solubility of the compound at pH 7.4; conditions: buffer
[10] = Apparent permeability of compound; type: ADME; conditions: not told
Rhesus monkey [11] = assay: Oral bioavailability in rhesus monkey assessed as N-((6S,9R)-6-(2,3-difluorophenyl)-3-(2-hydroxypropan-2-yl)-6,7,8,9-tetrahydro-5H-imidazo[1,2-a]azepin-9-yl)-2'-oxo-1',2'-dihydrospiro[piperidine-4,4'-pyrido[2,3-d][1,3]oxazine]-1-carboxamide at 10 mg/kg, po or iv normalized to AUC; type: ADME, organism-based, Macaca mulatta; conditions: in vivo
Canis familiaris = assay: Oral bioavailability in dog assessed as N-((6S,9R)-6-(2,3-difluorophenyl)-3-(2-hydroxypropan-2-yl)-6,7,8,9-tetrahydro-5H-imidazo[1,2-a]azepin-9-yl)-2'-oxo-1',2'-dihydrospiro[piperidine-4,4'-pyrido[2,3-d][1,3]oxazine]-1-carboxamide at 10 mg/kg, po or iv normalized to AUC; type: ADME, organism-based, Canis lupus familiaris; conditions: in vivo
[12] = Aqueous solubility of the compound at pH 3; type: physicochemical; conditions: buffer
Rattus norvegicus = assay: Oral bioavailability in rat assessed as N-((6S,9R)-6-(2,3-difluorophenyl)-3-(2-hydroxypropan-2-yl)-6,7,8,9-tetrahydro-5H-imidazo[1,2-a]azepin-9-yl)-2'-oxo-1',2'-dihydrospiro[piperidine-4,4'-pyrido[2,3-d][1,3]oxazine]-1-carboxamide at 10 mg/kg, po or iv normalized to AUC; type: ADME, organism-based; conditions: in vivo

T1 sequence (Q16602 whole entry, one chain of several): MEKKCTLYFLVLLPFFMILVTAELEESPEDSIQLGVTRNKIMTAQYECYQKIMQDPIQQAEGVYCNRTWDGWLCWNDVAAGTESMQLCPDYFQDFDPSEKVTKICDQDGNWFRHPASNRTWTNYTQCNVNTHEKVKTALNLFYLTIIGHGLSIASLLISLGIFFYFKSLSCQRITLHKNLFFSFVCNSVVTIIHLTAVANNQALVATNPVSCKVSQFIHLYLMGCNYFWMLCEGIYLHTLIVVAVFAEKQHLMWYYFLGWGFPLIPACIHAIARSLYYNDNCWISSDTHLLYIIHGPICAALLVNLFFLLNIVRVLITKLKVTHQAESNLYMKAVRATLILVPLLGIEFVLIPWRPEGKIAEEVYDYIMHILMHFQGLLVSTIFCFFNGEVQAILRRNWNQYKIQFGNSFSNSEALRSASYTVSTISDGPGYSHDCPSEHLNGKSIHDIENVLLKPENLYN

SMILES	IC50 [1]	Ratio IC50 (Homo sapiens)	IC50 [2]	Ki [3]	bioavailability [5]	other results
CCOC(C)(C)c1cnc2n1C[C@H](c1cccc(F)c1F)CC[C@H]2NC(=O)N1CCC2(CC1)OC(=O)Nc1ncccc12	0.32 nM	23000	2.9 nM	0.05 nM		
O=C(N[C@@H]1CC[C@@H](c2cccc(F)c2F)Cn2c(CC(F)(F)F)nnc21)N1CCC2(CC1)C(=O)Nc1ncccc12	2.3 nM	> 13000	2.7 nM	0.48 nM		bioavailability [4]: 6%
Cc1cnc2n1C[C@H](c1cccc(F)c1F)CC[C@H]2NC(=O)N1CCC(n2c(=O)[nH]c3ncccc32)CC1	4.1 nM		12 nM	2.2 nM		
COC(C)(C)c1cnc2n1C[C@H](c1cccc(F)c1F)CC[C@H]2NC(=O)N1CCC2(CC1)C(=O)Nc1ncccc12	0.82 nM	9700	1.4 nM	0.4 nM		bioavailability [4]: 5%
COCc1cnc2n1C[C@H](c1cccc(F)c1F)CC[C@H]2NC(=O)N1CCC2(CC1)OC(=O)Nc1ncccc12	0.61 nM	8900	1.7 nM	0.14 nM	15%	
O=C(N[C@@H]1CC[C@@H](c2cccc(F)c2F)Cn2ccnc21)N1CCC(n2c(=O)[nH]c3ncccc32)CC1	6.7 nM		19 nM	3.1 nM		
O=C(N[C@@H]1CC[C@@H](c2cccc(F)c2F)Cn2c(C3(C(F)(F)F)CC3)cnc21)N1CCC2(CC1)C(=O)Nc1ncccc12	1.4 nM	880	8.6 nM	0.63 nM		
CC(C)c1cnc2n1C[C@H](c1cccc(F)c1F)CC[C@H]2NC(=O)N1CCC(n2c(=O)[nH]c3ncccc32)CC1	0.62 nM		3.2 nM	0.69 nM		
COC(C)(C)c1cnc2n1C[C@H](c1cccc(F)c1F)CC[C@H]2NC(=O)N1CCC(n2c(=O)[nH]c3ncccc32)CC1	0.31 nM		0.61 nM	0.04 nM		
CC(C)(OCC(F)(F)F)c1cnc2n1C[C@H](c1cccc(F)c1F)CC[C@H]2NC(=O)N1CCC2(CC1)OC(=O)Nc1ncccc12	0.65 nM	6100	13 nM	0.16 nM		
O=C1Nc2ncccc2C2(CCN(C(=O)N[C@@H]3CC[C@@H](c4cccc(F)c4F)Cn4c(CC(F)(F)F)nnc43)CC2)O1	0.83 nM	> 36000	1.3 nM	0.19 nM	< 1%	
O=C1Nc2ncccc2C2(CCN(C(=O)N[C@@H]3CC[C@@H](c4cccc(F)c4F)Cn4c(CC(F)(F)F)cnc43)CC2)O1	0.41 nM		2 nM	0.07 nM	33%	bioavailability [6]: 28%; EC90 (Rhesus monkey [7]): 1000 nM; bioavailability [8]: 17%
CN(C)C(=O)c1cnc2n1C[C@H](c1cccc(F)c1F)CC[C@H]2NC(=O)N1CCC(n2c(=O)[nH]c3ncccc32)CC1	4.1 nM		7.4 nM	2.8 nM		
O=C(N[C@@H]1CC[C@@H](c2cccc(F)c2F)CN(CC(F)(F)F)C1=O)N1CCC(n2c(=O)[nH]c3ncccc32)CC1 [TELCAGEPANT]						solubility [9]: 30 µg/mL (≈ 53 µM); Papp [10]: 21 ×10⁻⁶ cm/s
COCc1cnc2n1C[C@H](c1cccc(F)c1F)CC[C@H]2NC(=O)N1CCC(n2c(=O)[nH]c3ncccc32)CC1	0.63 nM		1.9 nM	0.38 nM		
O=C(N[C@@H]1CC[C@@H](c2cccc(F)c2F)Cn2c(-c3ccccc3)cnc21)N1CCC(n2c(=O)[nH]c3ncccc32)CC1	2.6 nM		34 nM	1.1 nM		
O=C(N[C@@H]1CC[C@@H](c2cccc(F)c2F)Cn2c(CO)cnc21)N1CCC(n2c(=O)[nH]c3ncccc32)CC1	7.9 nM		12 nM	2.5 nM		
O=C(N[C@@H]1CC[C@@H](c2cccc(F)c2F)Cn2c(C3CC3)nnc21)N1CCC(n2c(=O)[nH]c3ncccc32)CC1	1.6 nM		2.4 nM	1 nM	2%	Papp [10]: 4 ×10⁻⁶ cm/s
CNCCc1cnc2n1C[C@H](c1cccc(F)c1F)CC[C@H]2NC(=O)N1CCC(n2c(=O)[nH]c3ncccc32)CC1	12 nM		15 nM	5.7 nM		
CC1(c2cnc3n2C[C@H](c2cccc(F)c2F)CC[C@H]3NC(=O)N2CCC3(CC2)OC(=O)Nc2ncccc23)CCCO1 (some centres not stated)	0.21 nM	17000	0.76 nM	0.036 nM	8%	
O=C(N[C@@H]1CC[C@@H](c2cccc(F)c2F)Cn2cc(CC(F)(F)F)nc21)N1CCC(n2c(=O)[nH]c3ncccc32)CC1	7.2 nM		33 nM	3.9 nM		
O=C(N[C@@H]1CC[C@@H](c2cccc(F)c2F)Cn2c(-c3nccs3)cnc21)N1CCC(n2c(=O)[nH]c3ncccc32)CC1	3.6 nM		64 nM	1.1 nM		
COCc1cnc2n1C[C@H](c1cccc(F)c1F)CC[C@H]2NC(=O)N1CCC2(CC1)C(=O)Nc1ncccc12	1.7 nM	9500	4.3 nM	0.62 nM		bioavailability [4]: 21%
Cc1cn2c(n1)[C@H](NC(=O)N1CCC(n3c(=O)[nH]c4ncccc43)CC1)CC[C@@H](c1cccc(F)c1F)C2	8.7 nM		28 nM	4 nM		
CC(C)(O)c1cnc2n1C[C@H](c1cccc(F)c1F)CC[C@H]2NC(=O)N1CCC2(CC1)OC(=O)Nc1ncccc12	0.86 nM	23000	1.5 nM	0.29 nM	3%	EC90 (Rhesus monkey [7]): 330 nM
COC(C)(C)c1cnc2n1C[C@H](c1cccc(F)c1F)CC[C@H]2NC(=O)N1CCC2(CC1)OC(=O)Nc1ncccc12	0.24 nM	32000	0.63 nM	0.05 nM	16%	F (Rhesus monkey [11]): 29%; bioavailability [6]: 10%; F (Canis familiaris): 14%; solubility [12]: 1100 µg/mL (≈ 1890 µM); bioavailability [8]: 5%; F (Rattus norvegicus): 26%; Papp [10]: 24 ×10⁻⁶ cm/s
CCC(CC)(OC)c1cnc2n1C[C@H](c1cccc(F)c1F)CC[C@H]2NC(=O)N1CCC2(CC1)OC(=O)Nc1ncccc12	0.25 nM	3200	0.42 nM	0.039 nM		
O=C(N[C@@H]1CC[C@@H](c2cccc(F)c2F)Cn2cc(CO)nc21)N1CCC(n2c(=O)[nH]c3ncccc32)CC1	12 nM		26 nM	3.2 nM		
O=C(N[C@@H]1CC[C@@H](c2cccc(F)c2F)Cn2c(CC(F)(F)F)cnc21)N1CCC2(CC1)C(=O)Nc1ncccc12	0.94 nM	9300	4 nM	0.61 nM	47%	
O=C(N[C@@H]1CC[C@@H](c2cccc(F)c2F)Cn2c(CC(F)(F)F)cnc21)N1CCC(n2c(=O)[nH]c3ncccc32)CC1	0.37 nM		2.6 nM	0.14 nM	35%	Papp [10]: 24 ×10⁻⁶ cm/s

Source: ChEMBL document CHEMBL1770088, “Orally bioavailable imidazoazepanes as calcitonin gene-related peptide (CGRP) receptor antagonists: discovery of MK-2918” (Bioorg Med Chem Lett, 2011)
